Patent US20100298141A1, “SUBSTITUTED PYRIDINE N-OXIDE HERBICIDES” (E. I. DU PONT DE NEMOURS AND COMPANY, priority 2007, published 2010)

Legend:
duck salad = assay: Test C flooded paddy test; type: in vivo, Heteranthera limosa; details: Flood
Procedure, shortened: (§1)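 In-water treatment: compound dosed into 3 cm flood over soil, water level unchanged throughout. Controls run alongside; visual assessment at day 13–15.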

Italian ryegrass = assay: Test C pre-/postemergence test; type: in vivo, Lolium multiflorum; details: for Plant response rating, Ryegrass, Italian: 31 g ai/ha, scale 0 to 100 (0 no effect, 100 complete control)
Procedure, shortened: (§2)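 Seeds were planted and treated preemergence with test chemical in a non-phytotoxic solvent mixture containing surfactant. Postemergence applications of the same formulation went onto plants 2 to 18 cm tall (1- to 4-leaf stage). A dash marks no test result.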

umbrella sedge = assay: Test C flooded paddy test; type: in vivo, Cyperus difformis; details: Flood
Procedure, shortened: as §1

crabgrass = assay: Test A pre-/postemergence greenhouse test; type: in vivo, Digitaria sanguinalis; details: for Plant response rating, Crabgrass, Large: 0 to 100 scale where 0 is no effect and 100 is complete control; for Crabgrass, Large plant response rating: 0 to 100 scale
Procedure, shortened: (§3)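 Pots of loam–sand soil sown with the test species are sprayed preemergence on the soil surface; emerged seedlings (1–2 leaves, 2–10 cm) are sprayed postemergence at the same time. The vehicle is a non-phytotoxic solvent mixture with surfactant. Injury is scored visually after ~10 d in greenhouse.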

yellow nutsedge = assay: Test C pre-/postemergence test; type: in vivo, Cyperus esculentus; details: for Plant response rating, Nutsedge, Yellow: 31 g ai/ha, scale 0 to 100 (0 no effect, 100 complete control)
Procedure, shortened: as §2

blackgrass = assay: Test C pre-/postemergence test; type: in vivo, Alopecurus myosuroides; details: for Plant response rating, Blackgrass: 31 g ai/ha, scale 0 to 100 (0 no effect, 100 complete control)
Procedure, shortened: as §2

Goosegrass = assay: Test C pre-/postemergence test; type: in vivo, Eleusin indica; details: for Plant response rating, Goosegrass: 31 g ai/ha, scale 0 to 100 (0 no effect, 100 complete control)
Procedure, shortened: as §2

morningglory = assay: Test A pre-/postemergence greenhouse test; type: in vivo, Ipomoea spp.; details: for Plant response rating, Morningglory: 0 to 100 scale where 0 is no effect and 100 is complete control; for Morningglory plant response rating: 0 to 100 scale
Procedure, shortened: as §3

redroot pigweed = assay: Test A pre-/postemergence greenhouse test; type: in vivo, Amaranthus retroflexus; details: for Plant response rating, Pigweed: 0 to 100 scale where 0 is no effect and 100 is complete control; for Pigweed plant response rating: 0 to 100 scale
Procedure, shortened: as §3

woolly cupgrass = assay: Test C pre-/postemergence test; type: in vivo, Eriochloa villosa; details: for Plant response rating, Cupgrass, Woolly: 31 g ai/ha, scale 0 to 100 (0 no effect, 100 complete control)
Procedure, shortened: as §2

corn = assay: Test C pre-/postemergence test; type: in vivo, Zea mays; details: for Plant response rating, Corn: 31 g ai/ha, scale 0 to 100 (0 no effect, 100 complete control)
Procedure, shortened: as §2

eastern black nightshade = assay: Test C pre-/postemergence test; type: in vivo, Solanum ptycanthum; details: for Plant response rating, Nightshade: 31 g ai/ha, scale 0 to 100 (0 no effect, 100 complete control)
Procedure, shortened: as §2

wheat = assay: Test C pre-/postemergence test; type: in vivo, Triticum aestivum; details: for Plant response rating, Wheat: 31 g ai/ha, scale 0 to 100 (0 no effect, 100 complete control)
Procedure, shortened: as §2

green foxtail = assay: Test C pre-/postemergence test; type: in vivo, Setaria viridis; details: for Plant response rating, Foxtail, Green: 31 g ai/ha, scale 0 to 100 (0 no effect, 100 complete control)
Procedure, shortened: as §2

[1] = system: common (oilseed) sunflower; assay: Test C pre-/postemergence test; type: in vivo, Helianthus annuus; details: for Plant response rating, Sunflower: 31 g ai/ha, scale 0 to 100 (0 no effect, 100 complete control)
Procedure, shortened: as §2

wild oat = assay: Test C pre-/postemergence test; type: in vivo, Avena fatua; details: for Plant response rating, Oat, Wild: 31 g ai/ha, scale 0 to 100 (0 no effect, 100 complete control)
Procedure, shortened: as §2

common ragweed = assay: Test C pre-/postemergence test; type: in vivo, Ambrosia elation; details: for Plant response rating, Ragweed: 31 g ai/ha, scale 0 to 100 (0 no effect, 100 complete control)
Procedure, shortened: as §2

[2] = 62 g ai/ha, scale 0 to 100 (0 no effect, 100 complete control)
[3] = 250 g ai/ha, scale 0 to 100, 0 no effect, 100 complete control, 13 to 15 days
[4] = 62 g ai/ha, Preemergence, scale 0 to 100
[5] = 125 g ai/ha, preemergence, scale 0 (no effect) to 100 (complete control)
[6] = preemergence, 250 g ai/ha, scale 0 (no effect) to 100 (complete control)
[7] = Postemergence, 500 g ai/ha, 0 is no effect, 100 is complete control
[8] = Preemergence, 125 g ai/ha, 0 no effect, 100 complete control

## Cn1nc(C(F)(F)F)c(CS(=O)(=O)c2ccc(Cl)c[n+]2[O-])c1OCC(F)(F)F [Compound 73]
Duck salad; [2]
  Plant response rating, Ducksalad: 70
Duck salad; [3]
  Plant response rating, Ducksalad: 85
Italian ryegrass; [4]
  Ryegrass, Italian plant response rating: 10
Italian ryegrass; [5]
  Ryegrass, Italian plant response rating: 60
Italian ryegrass; Preemergence
  Plant response rating, Ryegrass, Italian: 0
Italian ryegrass; [6]
  Ryegrass, Italian plant response rating: 98
Umbrella sedge; [2]
  Plant response rating, Sedge, Umbrella: 0
Umbrella sedge; [3]
  Plant response rating, Sedge, Umbrella: 65
crabgrass; Postemergence, 125 g ai/ha
  Plant response rating, Crabgrass, Large: 60
crabgrass; [7]
  Crabgrass, Large plant response rating: 80
crabgrass; [8]
  Crabgrass, Large plant response rating: 70
crabgrass; Preemergence, 500 g ai/ha
  Plant response rating, Crabgrass, Large: 90
Yellow nutsedge; [4]
  Nutsedge, Yellow plant response rating: 0
Yellow nutsedge; [5]
  Nutsedge, Yellow plant response rating: 40
Yellow nutsedge; Preemergence
  Plant response rating, Nutsedge, Yellow: 0
Yellow nutsedge; [6]
  Nutsedge, Yellow plant response rating: 80
blackgrass; [4]
  Blackgrass plant response rating: 98
blackgrass; [5]
  Blackgrass plant response rating: 100
blackgrass; Preemergence
  Plant response rating, Blackgrass: 98
blackgrass; [6]
  Blackgrass plant response rating: 100
Goosegrass; [4]
  Goosegrass plant response rating: 100
Goosegrass; [5]
  Goosegrass plant response rating: 100
Goosegrass; Preemergence
  Plant response rating, Goosegrass: 98
Goosegrass; [6]
  Goosegrass plant response rating: 100
morningglory; Postemergence, 125 g ai/ha
  Plant response rating, Morningglory: 0
morningglory; [7]
  Morningglory plant response rating: 20
morningglory; [8]
  Morningglory plant response rating: 20
morningglory; Preemergence, 500 g ai/ha
  Plant response rating, Morningglory: 40
Redroot pigweed; Postemergence, 125 g ai/ha
  Plant response rating, Pigweed: 10
Redroot pigweed; [7]
  Pigweed plant response rating: 60
Redroot pigweed; [8]
  Pigweed plant response rating: 90
Redroot pigweed; Preemergence, 500 g ai/ha
  Plant response rating, Pigweed: 100
Woolly cupgrass; [4]
  Cupgrass, Woolly plant response rating: 80
Woolly cupgrass; [5]
  Cupgrass, Woolly plant response rating: 85
Woolly cupgrass; Preemergence
  Plant response rating, Cupgrass, Woolly: 60
Woolly cupgrass; [6]
  Cupgrass, Woolly plant response rating: 85
corn; [4]
  Corn plant response rating: 0
corn; [5]
  Corn plant response rating: 0
corn; Preemergence
  Plant response rating, Corn: 0
corn; [6]
  Corn plant response rating: 30
Eastern black nightshade; [4]
  Nightshade plant response rating: 80
Eastern black nightshade; [5]
  Nightshade plant response rating: 80
Eastern black nightshade; Preemergence
  Plant response rating, Nightshade: 0
Eastern black nightshade; [6]
  Nightshade plant response rating: 85
wheat; [4]
  Wheat plant response rating: 0
wheat; [5]
  Wheat plant response rating: 10
wheat; Preemergence
  Plant response rating, Wheat: 0
wheat; [6]
  Wheat plant response rating: 20
Green foxtail; [4]
  Foxtail, Green plant response rating: 70
Green foxtail; [5]
  Foxtail, Green plant response rating: 100
Green foxtail; Preemergence
  Plant response rating, Foxtail, Green: 70
[1]; [4]
  Sunflower plant response rating: 0
[1]; [5]
  Sunflower plant response rating: 35
[1]; Preemergence
  Plant response rating, Sunflower: 0
[1]; [6]
  Sunflower plant response rating: 40
Wild oat; [4]
  Oat, Wild plant response rating: 40
Wild oat; [5]
  Oat, Wild plant response rating: 60
Wild oat; Preemergence
  Plant response rating, Oat, Wild: 40
Wild oat; [6]
  Oat, Wild plant response rating: 90
Common ragweed; [4]
  Ragweed plant response rating: 70
Common ragweed; [5]
  Ragweed plant response rating: 95
Common ragweed; Preemergence
  Plant response rating, Ragweed: 60
Common ragweed; [6]
  Ragweed plant response rating: 100

## CC(c1c(C(F)(F)F)nn(CC(F)(F)F)c1Cl)[S+]([O-])c1cccc[n+]1[O-] (centres unmarked) [Compound 46]
Duck salad; 62 g ai/ha, scale 0 to 100, 0 no effect, 100 complete control, 13 to 15 days
  Plant response rating, Ducksalad: 10
Duck salad; [3]
  Plant response rating, Ducksalad: 20
Italian ryegrass; [4]
  Ryegrass, Italian plant response rating: 55
Italian ryegrass; [5]
  Ryegrass, Italian plant response rating: 80
Italian ryegrass; Preemergence
  Plant response rating, Ryegrass, Italian: 0
Italian ryegrass; [6]
  Ryegrass, Italian plant response rating: 100
Umbrella sedge; [3]
  Plant response rating, Sedge, Umbrella: 70
crabgrass; Postemergence, 125 g ai/ha
  Plant response rating, Crabgrass, Large: 70
crabgrass; [7]
  Crabgrass, Large plant response rating: 80
crabgrass; [8]
  Crabgrass, Large plant response rating: 70
crabgrass; Preemergence, 500 g ai/ha
  Plant response rating, Crabgrass, Large: 100
Yellow nutsedge; [4]
  Nutsedge, Yellow plant response rating: 60
Yellow nutsedge; [5]
  Nutsedge, Yellow plant response rating: 65
Yellow nutsedge; Preemergence
  Plant response rating, Nutsedge, Yellow: 60
Yellow nutsedge; [6]
  Nutsedge, Yellow plant response rating: 100
blackgrass; [4]
  Blackgrass plant response rating: 100
blackgrass; [5]
  Blackgrass plant response rating: 100
blackgrass; Preemergence
  Plant response rating, Blackgrass: 70
blackgrass; [6]
  Blackgrass plant response rating: 100
Goosegrass; [4]
  Goosegrass plant response rating: 100
Goosegrass; [5]
  Goosegrass plant response rating: 100
Goosegrass; Preemergence
  Plant response rating, Goosegrass: 98
Goosegrass; [6]
  Goosegrass plant response rating: 100
morningglory; Postemergence, 125 g ai/ha
  Plant response rating, Morningglory: 0
morningglory; [7]
  Morningglory plant response rating: 60
morningglory; [8]
  Morningglory plant response rating: 30
morningglory; Preemergence, 500 g ai/ha
  Plant response rating, Morningglory: 90
Redroot pigweed; Postemergence, 125 g ai/ha
  Plant response rating, Pigweed: 40
Redroot pigweed; [7]
  Pigweed plant response rating: 50
Redroot pigweed; [8]
  Pigweed plant response rating: 10
Redroot pigweed; Preemergence, 500 g ai/ha
  Plant response rating, Pigweed: 100
Woolly cupgrass; [4]
  Cupgrass, Woolly plant response rating: 80
Woolly cupgrass; [5]
  Cupgrass, Woolly plant response rating: 95
Woolly cupgrass; Preemergence
  Plant response rating, Cupgrass, Woolly: 80
Woolly cupgrass; [6]
  Cupgrass, Woolly plant response rating: 95
corn; [4]
  Corn plant response rating: 0
corn; [5]
  Corn plant response rating: 0
corn; Preemergence
  Plant response rating, Corn: 0
corn; [6]
  Corn plant response rating: 55
Eastern black nightshade; [4]
  Nightshade plant response rating: 100
Eastern black nightshade; [5]
  Nightshade plant response rating: 100
Eastern black nightshade; Preemergence
  Plant response rating, Nightshade: 80
wheat; [4]
  Wheat plant response rating: 100
wheat; [5]
  Wheat plant response rating: 100
wheat; Preemergence
  Plant response rating, Wheat: 100
wheat; [6]
  Wheat plant response rating: 100
Green foxtail; [4]
  Foxtail, Green plant response rating: 98
Green foxtail; [5]
  Foxtail, Green plant response rating: 100
Green foxtail; Preemergence
  Plant response rating, Foxtail, Green: 95
Green foxtail; [6]
  Foxtail, Green plant response rating: 100
[1]; [4]
  Sunflower plant response rating: 0
[1]; [5]
  Sunflower plant response rating: 0
[1]; Preemergence
  Plant response rating, Sunflower: 0
[1]; [6]
  Sunflower plant response rating: 40
Wild oat; [4]
  Oat, Wild plant response rating: 20
Wild oat; [5]
  Oat, Wild plant response rating: 20
Wild oat; Preemergence
  Plant response rating, Oat, Wild: 0
Wild oat; [6]
  Oat, Wild plant response rating: 50
Common ragweed; [4]
  Ragweed plant response rating: 0
Common ragweed; [5]
  Ragweed plant response rating: 5
Common ragweed; Preemergence
  Plant response rating, Ragweed: 0
Common ragweed; [6]
  Ragweed plant response rating: 60
